Key:
[1] = molecular target: Glutamate receptor ionotropic, NMDA 1 (Rattus norvegicus, UniProt P35439); experiment: Inhibition of [3H]glycine binding to rat cortical membranes; format: cell membranes, Membrane
[2] = species: Rattus norvegicus; experiment: Tested in vitro for the inhibitory constant of glycine (0.3 uM) responses in isolated cultured cortical neurones; format: functional
[3] = species: Rattus norvegicus; experiment: In vitro inhibitory activity of glycine (0.3 uM) responses in isolated cultured cortical neurons; format: functional
[4] = Compound was evaluated for the pKa value in experiment 1; format: physicochemical
[5] = Compound was evaluated for the pKa value in experiment 2; format: physicochemical
[6] = Compound was evaluated for the octanol-water partition coefficient […] at pH 7.4; format: physicochemical
[7] = Compound was evaluated for the pKa value; format: physicochemical

Compound | IC50 [1] [µM] | Ki [3] [µM] | Inhibition [3] [%] | other results
C[C@@H]1CN(O)C(=O)[C@@H]1N (stereo in doubt; (+)-2) | 1.4 |  |  | Ki [2]: 0.65 µM
C[C@@H]1C2NCCC1N(O)C2=O (stereo not given in full) | > 100 | > 80 |  | 
O=C1C2NCCC2CN1O (stereo not given) | > 100 |  | 52 | 
O=C1C2CC(CN2)N1O (stereo not given) |  | 5 |  | 
N[C@H]1C(=O)N(O)C[C@H]1O | 1.3 | 0.75 |  | 
O=C1C2CC(CN2)CN1O (stereo not given) | > 100 |  | 16 | 
CCC[C@@H]1CNC(=O)[C@@H]1N | > 100 |  | 39 | 
C[C@H]1CN(O)C(=O)[C@@H]1N | > 100 |  |  | 
N[C@H]1C(=O)N(O)C[C@@H]1O | 313 |  | 30 | 
N[C@@H]1CCN(O)C1=O (stereo in doubt; (+)-1) | 12.5 | 2.5 |  | 
NC1CCN(OCc2ccccc2)C1=O (stereo not given) |  |  |  | pKa [4]: 6.2; pKa [5]: 6.6
C[C@H]1CN(O)C(=O)[C@H]1N | 86 |  |  | 
NC1CCN(O)C1=O (single isomer, unassigned; (-)) | 339 |  |  | 
O=C1C2CC(CCN2)CN1O (stereo not given) | > 100 |  | 28 | 
N[C@@H]1CCN(O)C1=O (stereo in doubt; 1) | 27.2 | 6.3 |  | logD [6]: 3.52; pKa [7]: 8.1
C[C@@H]1CN(O)C(=O)[C@@H]1N (stereo in doubt; 2) | 2.9 | 1.3 |  | logD [6]: 3.42; pKa [7]: 8
N[C@H]1C(=O)N(O)C[C@H]1CCO | > 100 |  | 59 | 
CC[C@@H]1CN(O)C(=O)[C@@H]1N | 15 | 15.4 |  | 
C[C@@H]1CN(OCc2ccccc2)C(=O)[C@@H]1N |  |  |  | pKa [7]: 6.1
N[C@H]1C(=O)N(O)C[C@H]1CO | > 100 |  | 63 | 
N[C@H]1C(=O)N(O)C[C@H]1c1ccccc1 | > 100 |  | 0 | 
C[C@H]1C2NCCC1N(O)C2=O (stereo not given in full) | 48 | 8.2 |  | 
O=C1C2CC(CCN2)N1O (stereo not given) | 19 | 3.5 |  | 
